Several values for one entry are separate records, joined by “and”; a condition that tells them apart may be missing. Equal values may be shown once.
Details: Liquid, Vibrating tube method

CCCCCCCCCC [decane]
Details	mass density
283.14 K, 21786 kPa	752.1 kg/m3
283.14 K, 21835 kPa	752.2 kg/m3
283.14 K, 21866 kPa	752.3 kg/m3
283.14 K, 22948 kPa	752.7 kg/m3
283.14 K, 22974 kPa	752.9 kg/m3
283.14 K, 23083 kPa	752.9 kg/m3
283.14 K, 24091 kPa	753.6 kg/m3
283.14 K, 24111 kPa	753.6 kg/m3
283.14 K, 24206 kPa	753.6 kg/m3
283.14 K, 25452 kPa	754.4 kg/m3
283.14 K, 27407 kPa	755.5 kg/m3
283.14 K, 27430 kPa	755.5 kg/m3
283.14 K, 27471 kPa	755.7 kg/m3
283.14 K, 27497 kPa	755.6 kg/m3
283.14 K, 27531 kPa	755.7 kg/m3
283.14 K, 27558 kPa	755.6 kg/m3
283.14 K, 27588 kPa	755.8 kg/m3
283.14 K, 29091 kPa	756.5 kg/m3
283.14 K, 29172 kPa	756.6 kg/m3
283.14 K, 29227 kPa	756.6 kg/m3
283.14 K, 29531 kPa	756.9 kg/m3
283.14 K, 29628 kPa	756.9 kg/m3
283.14 K, 29720 kPa	756.8 kg/m3
283.14 K, 29749 kPa	756.9 kg/m3
283.14 K, 29785 kPa	756.9 kg/m3
283.14 K, 29818 kPa	757 kg/m3
283.14 K, 29843 kPa	756.9 kg/m3
283.14 K, 29867 kPa	757.1 kg/m3
283.14 K, 29895 kPa	757 kg/m3
283.14 K, 29928 kPa	757.2 kg/m3
283.14 K, 29961 kPa	757 kg/m3
283.14 K, 29990 kPa	757.1 kg/m3
283.14 K, 30019 kPa	757.1 kg/m3
283.14 K, 30044 kPa	757.1 kg/m3
283.14 K, 30081 kPa	757.1 kg/m3
283.14 K, 30115 kPa	757.2 kg/m3
283.14 K, 30145 kPa	757.1 kg/m3
283.14 K, 30807 kPa	757.7 kg/m3
283.14 K, 30934 kPa	757.6 kg/m3
283.14 K, 31526 kPa	758 kg/m3
283.14 K, 31540 kPa	758 kg/m3
283.14 K, 31581 kPa	758.1 kg/m3
283.14 K, 31898 kPa	758.1 kg/m3
283.14 K, 31921 kPa	758.2 kg/m3
283.14 K, 31938 kPa	758.2 kg/m3
283.14 K, 31958 kPa	758.3 kg/m3
283.14 K, 31979 kPa	758.2 kg/m3
283.14 K, 32000 kPa	758.3 kg/m3
283.14 K, 32020 kPa	758.2 kg/m3
283.14 K, 32038 kPa	758.2 kg/m3
283.14 K, 32070 kPa	758.2 kg/m3
283.14 K, 32106 kPa	758.4 kg/m3
283.14 K, 32127 kPa	758.3 kg/m3
283.14 K, 32164 kPa	758.3 kg/m3
283.14 K, 32190 kPa	758.4 kg/m3
283.14 K, 32578 kPa	758.6 kg/m3
283.14 K, 33321 kPa	759.1 kg/m3
283.14 K, 33347 kPa	759 kg/m3
283.14 K, 33367 kPa	759 kg/m3
283.14 K, 33396 kPa	759 kg/m3
283.14 K, 33425 kPa	758.9 kg/m3
283.14 K, 33445 kPa	759 kg/m3
283.14 K, 33471 kPa	759.1 kg/m3
283.14 K, 33494 kPa	759.1 kg/m3
283.14 K, 33514 kPa	759 kg/m3
283.14 K, 34282 kPa	759.5 kg/m3
283.14 K, 34384 kPa	759.6 kg/m3
283.14 K, 34405 kPa	759.6 kg/m3
283.14 K, 34424 kPa	759.7 kg/m3
283.14 K, 34465 kPa	759.7 kg/m3
283.15 K, 312 kPa	737.7 kg/m3 and 737.6 kg/m3
283.15 K, 314 kPa	737.5 kg/m3
283.15 K, 361 kPa	737.6 kg/m3
283.15 K, 417 kPa	737.6 kg/m3
283.15 K, 446 kPa	737.8 kg/m3
283.15 K, 603 kPa	737.9 kg/m3
283.15 K, 1468 kPa	738.4 kg/m3
283.15 K, 1599 kPa	738.6 kg/m3
283.15 K, 1655 kPa	738.6 kg/m3
283.15 K, 1727 kPa	738.5 kg/m3
283.15 K, 1798 kPa	738.8 kg/m3
283.15 K, 1897 kPa	738.7 kg/m3
283.15 K, 1959 kPa	738.9 kg/m3
283.15 K, 2028 kPa	738.8 kg/m3
283.15 K, 2118 kPa	738.9 kg/m3
283.15 K, 2175 kPa	739 kg/m3
283.15 K, 2229 kPa	739 kg/m3
283.15 K, 2291 kPa	739.1 kg/m3
283.15 K, 2327 kPa	739.1 kg/m3
283.15 K, 2370 kPa	739 kg/m3
283.15 K, 2425 kPa	739.1 kg/m3
283.15 K, 2520 kPa	739.2 kg/m3
283.15 K, 2614 kPa	739.3 kg/m3
283.15 K, 2634 kPa	739.3 kg/m3
283.15 K, 2647 kPa	739.4 kg/m3
283.15 K, 2708 kPa	739.4 kg/m3
283.15 K, 2730 kPa	739.4 kg/m3
283.15 K, 2749 kPa	739.3 kg/m3
283.15 K, 2767 kPa	739.4 kg/m3
283.15 K, 2789 kPa	739.4 kg/m3
283.15 K, 2807 kPa	739.5 kg/m3
283.15 K, 2822 kPa	739.5 kg/m3
283.15 K, 2835 kPa	739.4 kg/m3
283.15 K, 2864 kPa	739.6 kg/m3
283.15 K, 3136 kPa	739.7 kg/m3
283.15 K, 3226 kPa	739.7 kg/m3
283.15 K, 3273 kPa	739.9 kg/m3
283.15 K, 3287 kPa	739.8 kg/m3
283.15 K, 3296 kPa	739.8 kg/m3
283.15 K, 3307 kPa	739.9 kg/m3
283.15 K, 3341 kPa	739.9 kg/m3
283.15 K, 3352 kPa	739.8 kg/m3
283.15 K, 3361 kPa	739.8 kg/m3
283.15 K, 3373 kPa	739.9 kg/m3
283.15 K, 3380 kPa	740 kg/m3
283.15 K, 3390 kPa	739.9 kg/m3
283.15 K, 3400 kPa	739.8 kg/m3
283.15 K, 3408 kPa	740 kg/m3
283.15 K, 3417 kPa	739.9 kg/m3
283.15 K, 3426 kPa	740 kg/m3
283.15 K, 3434 kPa	739.9 kg/m3
283.15 K, 3443 kPa	739.8 kg/m3
283.15 K, 3452 kPa	740 kg/m3
283.15 K, 3461 kPa	739.9 kg/m3
283.15 K, 3471 kPa	740 kg/m3
283.15 K, 3485 kPa	740 kg/m3
283.15 K, 3496 kPa	739.9 kg/m3
283.15 K, 3507 kPa	740.1 kg/m3
283.15 K, 3517 kPa	740 kg/m3
283.15 K, 3528 kPa	739.9 kg/m3
283.15 K, 3539 kPa	740 kg/m3
283.15 K, 3552 kPa	740 kg/m3
283.15 K, 3563 kPa	740.1 kg/m3
283.15 K, 3575 kPa	740 kg/m3
283.15 K, 3586 kPa	740.2 kg/m3
283.15 K, 3601 kPa	740 kg/m3
283.15 K, 3612 kPa	740.1 kg/m3

Source: the NIST ThermoML archive (doi:10.1021/je800110r)
